These results are taken from ChEMBL document CHEMBL3217699, “Discovery of potent, proteolytically stable, and cell permeable human sirtuin peptidomimetic inhibitors containing N-thioacetyl-lysine” (Medchemcomm, 2010).

In data set [1] the target is T1, NAD-dependent protein deacetylase sirtuin-1 (Homo sapiens, UniProt Q96EB6).
T1 sequence (Q96EB6 whole entry): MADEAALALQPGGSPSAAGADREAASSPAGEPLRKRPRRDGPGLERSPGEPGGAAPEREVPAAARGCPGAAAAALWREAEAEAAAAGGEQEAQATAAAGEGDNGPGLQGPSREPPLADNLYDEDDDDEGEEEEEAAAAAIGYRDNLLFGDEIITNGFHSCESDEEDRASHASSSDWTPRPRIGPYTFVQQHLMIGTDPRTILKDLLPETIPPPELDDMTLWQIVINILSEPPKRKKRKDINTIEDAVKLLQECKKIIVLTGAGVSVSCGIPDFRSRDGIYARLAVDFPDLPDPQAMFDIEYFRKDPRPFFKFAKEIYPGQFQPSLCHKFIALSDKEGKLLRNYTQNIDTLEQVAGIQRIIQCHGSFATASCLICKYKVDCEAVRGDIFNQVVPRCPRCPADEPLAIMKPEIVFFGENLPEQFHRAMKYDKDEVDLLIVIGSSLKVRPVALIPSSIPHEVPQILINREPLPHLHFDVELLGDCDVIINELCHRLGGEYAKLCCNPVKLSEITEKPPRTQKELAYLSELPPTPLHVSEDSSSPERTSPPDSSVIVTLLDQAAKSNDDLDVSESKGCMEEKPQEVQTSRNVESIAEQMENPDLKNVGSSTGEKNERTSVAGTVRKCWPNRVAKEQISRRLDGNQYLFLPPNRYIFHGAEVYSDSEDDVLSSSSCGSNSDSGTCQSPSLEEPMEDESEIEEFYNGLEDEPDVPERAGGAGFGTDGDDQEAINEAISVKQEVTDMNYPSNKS
The data set is described as follows: Inhibition of human SIRT1 using peptide substrate assessed as deacetylase activity.

The nature of data set [2]: Proteolytic stability of the compound assessed as degradation after 30 mins by HPLC in presence of pronase. The format is ADME. The note with it: 0.5 h.
Data set [3] concerns the target T2, NAD-dependent protein deacetylase sirtuin-1 (Homo sapiens) (UniProt Q96EB6).
T2 sequence (whole entry): T1 sequence (Q96EB6 whole entry)
Kind of data set: Activity of GST-tagged SIRT1 (unknown origin) assessed as compound deacetylation measured up to 4 hrs by sirutin time course assay.

Data set [4] addresses T3, Histone deacetylase 8 (Homo sapiens) (UniProt Q9BY41).
T3 sequence (whole entry): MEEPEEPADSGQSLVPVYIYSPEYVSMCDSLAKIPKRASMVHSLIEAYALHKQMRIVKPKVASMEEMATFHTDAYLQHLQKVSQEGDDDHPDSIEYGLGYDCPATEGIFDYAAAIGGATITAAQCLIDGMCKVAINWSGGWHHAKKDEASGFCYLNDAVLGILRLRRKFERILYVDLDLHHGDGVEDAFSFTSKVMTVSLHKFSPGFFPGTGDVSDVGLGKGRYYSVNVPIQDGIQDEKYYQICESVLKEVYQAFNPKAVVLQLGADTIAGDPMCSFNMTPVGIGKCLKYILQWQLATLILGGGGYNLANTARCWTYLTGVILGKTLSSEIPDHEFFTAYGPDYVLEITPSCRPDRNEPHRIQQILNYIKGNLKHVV
The data set is described as follows: Activity of recombinant HDAC8 (unknown origin) assessed as compound deacetylation measured up to 4 hrs by time course assay.

In data set [5] the target is Histone deacetylase 1 (Homo sapiens) (UniProt Q13547). The data set is described as follows: Activity of HDAC1 in human HeLa cells nuclear extract assessed as compound deacetylation measured up to 2 hrs by time course assay. Format: cell-free.
Data set [6] addresses Histone deacetylase 2 (Homo sapiens) (UniProt Q92769). Kind of data set: Activity of HDAC2 in human HeLa cells nuclear extract assessed as compound deacetylation measured up to 2 hrs by time course assay. Format: cell-free.
Data set [7] deals with T4, NAD-dependent protein deacetylase sirtuin-2 (Homo sapiens, UniProt Q8IXJ6).
T4 sequence (Q8IXJ6 whole entry): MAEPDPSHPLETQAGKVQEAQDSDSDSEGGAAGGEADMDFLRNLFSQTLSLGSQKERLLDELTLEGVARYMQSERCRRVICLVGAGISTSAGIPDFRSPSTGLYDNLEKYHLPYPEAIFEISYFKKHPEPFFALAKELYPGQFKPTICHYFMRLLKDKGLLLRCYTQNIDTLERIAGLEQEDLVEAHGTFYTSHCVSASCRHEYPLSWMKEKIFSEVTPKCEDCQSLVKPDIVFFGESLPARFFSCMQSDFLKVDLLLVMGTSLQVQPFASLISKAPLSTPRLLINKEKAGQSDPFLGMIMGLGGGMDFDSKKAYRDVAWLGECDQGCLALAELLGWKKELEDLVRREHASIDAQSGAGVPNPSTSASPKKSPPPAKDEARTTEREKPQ
Kind of data set: Inhibition of GST-tagged SIRT2 (unknown origin) by HPLC assay.

The target of data set [8] is T5, NAD-dependent protein deacetylase sirtuin-3, mitochondrial (Homo sapiens, UniProt Q9NTG7).
T5 sequence (Q9NTG7 whole entry): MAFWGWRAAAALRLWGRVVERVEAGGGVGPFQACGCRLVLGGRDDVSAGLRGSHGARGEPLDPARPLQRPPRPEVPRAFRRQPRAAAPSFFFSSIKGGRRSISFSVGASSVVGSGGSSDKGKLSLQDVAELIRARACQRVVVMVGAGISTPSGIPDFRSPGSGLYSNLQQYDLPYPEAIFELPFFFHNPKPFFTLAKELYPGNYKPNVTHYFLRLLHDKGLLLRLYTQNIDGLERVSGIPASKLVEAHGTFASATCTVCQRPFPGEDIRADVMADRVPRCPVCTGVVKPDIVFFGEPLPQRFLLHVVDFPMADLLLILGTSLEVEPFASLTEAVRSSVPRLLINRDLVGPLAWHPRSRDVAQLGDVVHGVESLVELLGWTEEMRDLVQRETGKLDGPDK
Kind of data set: Inhibition of GST-tagged SIRT3 (unknown origin) by HPLC assay.

Data set [9] deals with T6, NAD-dependent protein deacetylase sirtuin-2 (Homo sapiens) (UniProt Q8IXJ6).
T6 sequence (whole entry): T4 sequence (Q8IXJ6 whole entry)
The data set is described as follows: Activity of GST-tagged SIRT2 (unknown origin) assessed as compound deacetylation measured up to 4 hrs by sirutin time course assay.

The target in data set [10] is T7, NAD-dependent protein deacetylase sirtuin-3, mitochondrial (Homo sapiens) (UniProt Q9NTG7).
T7 sequence (whole entry): T5 sequence (Q9NTG7 whole entry)
Kind of data set: Activity of GST-tagged SIRT3 (unknown origin) assessed as compound deacetylation measured up to 4 hrs by sirutin time course assay.

Data set [11] deals with T2, NAD-dependent protein deacetylase sirtuin-1 (Homo sapiens). Kind of data set: Inhibition of SIRT1 in human HCT116 cells assessed as increase in p53 acetylation level at 5 uM by Western blot analysis. The format is cell-based. To be noted: HCT-116.
The target is the same in data set [12]. The note with it: HCT-116, 10 uM.
Description: Inhibition of SIRT1 in human HCT116 cells assessed as increase in p53 acetylation level at 10 uM by Western blot analysis
For data set [13] the target is unchanged. Kind of data set: Inhibition of SIRT1 in human HCT116 cells assessed as increase in p53 acetylation level at 500 uM by Western blot analysis. The format is cell-based. To be noted: HCT-116. For orientation: Immunoblotting shows a protein as a band on a membrane.
Data set [14] shares this target. The data set is described as follows: Inhibition of SIRT1 in human HCT116 cells assessed as increase in p53 acetylation level by Western blot analysis. To be noted: HCT-116. Format: cell-based.
Data set [15] has the same target. Kind of data set: Inhibition of SIRT1 in human HCT116 cells assessed as increase in p53 acetylation level at 3 uM by Western blot analysis. The note with it: HCT-116. The format is cell-based.
Data set [16] addresses T6, NAD-dependent protein deacetylase sirtuin-2 (Homo sapiens). The data set is described as follows: Ratio of AGK2 to compound in GST-tagged SIRT2 (unknown origin).

Usually IC50 stands for the concentration that gives 50% inhibition.

The structures appear in SMILES notation. The source made the active and inactive calls. No cut-off for these calls is given here. Where a SMILES comes first, the peptide text is derived from it.

Chain of Histone deacetylase 1 (Homo sapiens) (Q13547 whole entry): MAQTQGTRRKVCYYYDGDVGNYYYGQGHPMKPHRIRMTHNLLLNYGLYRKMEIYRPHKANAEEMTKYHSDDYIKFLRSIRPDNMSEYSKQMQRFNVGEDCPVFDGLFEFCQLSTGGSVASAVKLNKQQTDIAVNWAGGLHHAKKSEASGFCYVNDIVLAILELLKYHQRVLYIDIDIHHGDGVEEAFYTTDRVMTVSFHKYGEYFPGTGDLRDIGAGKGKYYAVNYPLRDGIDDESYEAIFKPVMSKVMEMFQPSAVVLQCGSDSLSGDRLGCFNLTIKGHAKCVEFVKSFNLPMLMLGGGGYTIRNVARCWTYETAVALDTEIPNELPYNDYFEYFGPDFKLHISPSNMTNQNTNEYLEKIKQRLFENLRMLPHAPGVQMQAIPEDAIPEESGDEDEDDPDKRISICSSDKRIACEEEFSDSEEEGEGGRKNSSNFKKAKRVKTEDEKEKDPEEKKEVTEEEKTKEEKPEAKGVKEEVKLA
Chain of Histone deacetylase 2 (Homo sapiens) (Q92769 whole entry): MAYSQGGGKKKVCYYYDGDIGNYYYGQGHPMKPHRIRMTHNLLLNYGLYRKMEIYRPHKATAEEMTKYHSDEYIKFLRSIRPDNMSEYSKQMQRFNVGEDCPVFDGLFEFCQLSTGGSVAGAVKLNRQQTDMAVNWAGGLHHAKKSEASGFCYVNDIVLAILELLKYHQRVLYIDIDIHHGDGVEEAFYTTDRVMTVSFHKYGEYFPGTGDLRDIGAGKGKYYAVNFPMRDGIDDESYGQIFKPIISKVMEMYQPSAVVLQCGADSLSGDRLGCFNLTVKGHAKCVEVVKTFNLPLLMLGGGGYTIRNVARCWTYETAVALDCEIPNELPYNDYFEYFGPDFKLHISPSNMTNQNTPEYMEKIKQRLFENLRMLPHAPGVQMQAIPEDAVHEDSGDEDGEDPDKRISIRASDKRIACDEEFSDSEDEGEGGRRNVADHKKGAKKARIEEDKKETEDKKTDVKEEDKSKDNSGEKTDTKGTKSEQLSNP

Consider `CSCC[C@H](NC(=O)[C@H](Cc1ccc(O)cc1)NC(=O)[C@H](CCCCNC(C)=S)NC(=O)[C@H](CCCCN)NC(=O)[C@H](Cc1c[nH]cn1)NC(C)=O)C(N)=O` (HELM PEPTIDE1{[ac].H.K.[CC(=S)NCCCC[C@H](N[*:1])C(=O)[*:2]].Y.M.[am]}$$$$V2.0), for which the IC50 in data set [1] was 3.5 µM.

Regarding `CC(=O)NCCC[C@H](NC(=O)[C@H](CCCCNC(C)=S)NC(=O)[C@H](CCCNC(C)=O)NC(C)=O)C(N)=O`, the IC50 in [1] was 5.9 µM; in data set [7] it was 2.9 µM; in data set [8] it was 4.3 µM. In addition, the Stability result in data set [2] is given as “Stable”. In addition, the result in [3], in data set [4], in [5], in data set [6], in [9] and in data set [10] was inactive. Also, the inhibition result in [11] is “Active”.

For `CSCC[C@H](NC(=O)[C@H](CC(C)C)NC(=O)[C@H](CCCCNC(C)=S)NC(=O)[C@H](CCCCNC(C)=O)NC(=O)[C@H](Cc1c[nH]cn1)NC(C)=O)C(N)=O` (HELM PEPTIDE1{[ac].H.K.[CC(=S)NCCCC[C@H](N[*:1])C(=O)[*:2]].L.M.[am]}|PEPTIDE2{[ac]}$PEPTIDE1,PEPTIDE2,3:R3-1:R2$$$V2.0), the IC50 in [1] is 4.1 µM.

Consider `CC(=S)NCCCC[C@H](NC(=O)OCc1ccccc1)C(=O)Nc1ccccc1`, for which the IC50 in [1] worked out at 140 µM. Besides, the inhibition result in [12] was “inactive”.

As to `CSCC[C@H](NC(=O)[C@H](CCCCNC(C)=O)NC(=O)[C@H](CCCCNC(C)=S)NC(=O)[C@H](CCCCN)NC(=O)[C@H](Cc1c[nH]cn1)NC(C)=O)C(N)=O` (HELM PEPTIDE1{[ac].H.K.[CC(=S)NCCCC[C@H](N[*:1])C(=O)[*:2]].K.M.[am]}|PEPTIDE2{[ac]}$PEPTIDE1,PEPTIDE2,5:R3-1:R2$$$V2.0), the IC50 in data set [1] was 0.7 µM.

Consider `CSCC[C@H](NC(=O)[C@H](CC(C)C)NC(=O)[C@H](CCCC/N=C(/C)S)NC(=O)[C@H](CCCCN)NC(=O)[C@H](Cc1c[nH]cn1)NC(=O)[C@H](CCCN=C(N)N)NC(=O)[C@H](CO)NC(=O)[C@@H](NC(=O)[C@H](CO)NC(=O)[C@H](CCC(N)=O)NC(=O)CNC(=O)[C@H](CCCCN)NC(=O)[C@@H](N)CCCCN)[C@@H](C)O)C(=O)N[C@@H](Cc1ccccc1)C(=O)N[C@@H](CCCCN)C(=O)N[C@H](C(=O)N[C@@H](CCC(=O)O)C(=O)NCC(=O)O)[C@@H](C)O`, for which, in data set [13], the inhibition result was “inactive”.

For `CSCC[C@H](NC(=O)[C@H](CCCCNC(C)=O)NC(=O)[C@H](CCCCNC(C)=S)NC(=O)[C@H](CCCCNC(C)=O)NC(=O)[C@H](Cc1c[nH]cn1)NC(C)=O)C(N)=O` (HELM PEPTIDE1{[ac].H.K.[CC(=S)NCCCC[C@H](N[*:1])C(=O)[*:2]].K.M.[am]}|PEPTIDE2{[ac]}|PEPTIDE3{[ac]}$PEPTIDE1,PEPTIDE2,3:R3-1:R2|PEPTIDE1,PEPTIDE3,5:R3-1:R2$$$V2.0), in [1], the IC50 was 2 µM.

Turning to `CSCC[C@H](NC(=O)[C@H](CC(C)C)NC(=O)[C@H](CCCCNC(C)=S)NC(=O)[C@H](Cc1ccc(O)cc1)NC(=O)[C@H](Cc1c[nH]cn1)NC(C)=O)C(N)=O` (HELM PEPTIDE1{[ac].H.Y.[CC(=S)NCCCC[C@H](N[*:1])C(=O)[*:2]].L.M.[am]}$$$$V2.0), the IC50 in data set [1] was determined as 4.2 µM.

With `CSCC[C@H](NC(=O)[C@H](Cc1ccc(O)cc1)NC(=O)[C@H](CCCCNC(C)=S)NC(=O)[C@H](Cc1ccc(O)cc1)NC(=O)[C@H](Cc1c[nH]cn1)NC(C)=O)C(N)=O` (HELM PEPTIDE1{[ac].H.Y.[CC(=S)NCCCC[C@H](N[*:1])C(=O)[*:2]].Y.M.[am]}$$$$V2.0), the IC50 in data set [1] came out at 6 µM.

On to `CC(=O)NCCCC[C@H](NC(=O)[C@H](CCCCNC(C)=S)NC(=O)[C@H](CCCCNC(C)=O)NC(C)=O)C(N)=O`, for which the IC50 in [1] was 2.1 µM; in data set [7] it was 2.4 µM; in [8], 4.5 µM. Besides, in data set [2], the Stability result is given as “Stable”. Further, the result in data set [3], in data set [4], in data set [9] and in data set [10] was inactive. Besides, the Activity in data set [5] and in data set [6] was 19% in each case. The inhibition entry in [14] is “Dose-dependent effect”. For the same compound, in data set [15], the inhibition result was “Active”. Besides, in data set [16], the Ratio was 23.
